Measured values taken from patent US4560662A, “Streptomyces antibioticus ATCC 31771 and process for obtaining same” (priority 1981, dated 1985).
In brackets after ≈: the same amount, converted by molar mass. Read-outs that look alike come from different tables or passages of the source.

Assays:
[1] = test system: Staphylococcus aureus ATCC 6538 P; test: Bacteriostatic power in solid medium (MIC), aerobic Gram positive; format: cell-based
[2] = test system: Staphylococcus aureus LRP 14; test: as above; format: cell-based
[3] = test system: Streptococcus faecalis LRP 7; test: as above; format: cell-based
[4] = test system: Streptococcus faecalis sub. zymogenes ATCC 12958; test: as above; format: cell-based
[5] = test system: Streptococcus pneumonieae ATCC 6303; test: as above; format: cell-based
[6] = test system: Streptococcus pneumonieae LRP 52; test: as above; format: cell-based
[7] = test system: Streptococcus pneumonieae LRP 53; test: as above; format: cell-based
[8] = test system: Streptococcus pyogenes ATCC 8668; test: as above; format: cell-based
[9] = test system: Streptococcus pyogenes LRP 197; test: as above; format: cell-based
[10] = test system: Corynebacterium diphteriae LRP 24; test: as above; format: cell-based
[11] = test system: Micrococcus luteus ATCC 9341; test: as above; format: cell-based
[12] = test system: Micrococcus luteus ATCC 15957; test: as above; format: cell-based
Text: (§1) Turning now to an examination of the novel macrolide antibiotics produced according to the present invention, they are all characterized by a bacteriostatic spectrum like that of erythromycin and by the stability in acidic environment, whereby their direct administration by oral route is possible, without having recourse to esters and/or salts, showing the afore mentioned disadvantages and problems. The above is confirmed by the following Table 1, wherein the MIC values are reported, indicating the bacteriostatic power, and by the Table 2, giving the stability values in acidic environment. Without having to be construed in a limiting sense, it seems plausible that the greater stability of the macrolide. antibiotics of the present invention can be attributed to the presence in the molecule of the antibiotic of the neutral sugar oleandrose (J. Antib. (1976) XXIX (7), 728).
(§2) Bacteriostatic power in solid medium of Erythromycin A, Erythromycin B,
(§3) aerobic and anaerobic bacteria, Gram positive and Gram negative minimum
(§4) inhibiting concentrations expressed in mcg/ml.

[13] = test system: Staphylococcus aureus ATCC 14154; test: as above; format: cell-based
Text: as §1, §2, §3, §4

Bacillus subtilis LRP 25 = test: as above; format: cell-based
[14] = test system: Haemophilus influenzae ATCC 19418; test: Bacteriostatic power in solid medium (MIC), aerobic Gram negative; format: cell-based
Text: as §1, §2, §3, §4

[15] = test system: Pseudomonas aeruginosa LRP 9; test: as above; format: cell-based
Text: as §1, §2, §3, §4

Shigella sonnei LRP 5 = test: as above; format: cell-based
Text: as §1, §2, §3, §4

[16] = test system: Neisseria Gonorrhoeae ATCC 19424; test: as above; format: cell-based
Escherichia coli LRP 50 = test: as above; format: cell-based
[17] = test system: Klebsiella pneumoniae LRP 54; test: as above; format: cell-based
[18] = test system: Proteus vulgaris ATCC 6380; test: as above; format: cell-based
Salmonella typhi LRP 8 = test: as above; format: cell-based
[19] = test system: Acholeplasma laidlawii ATCC 23206; test: as above; format: cell-based
[20] = test system: Mycoplasma hominis I ATCC 14097; test: as above; format: cell-based
[21] = test system: Clostridium perfrigens ATCC 3624; test: Bacteriostatic power in solid medium (MIC), anaerobic; format: cell-based
[22] = test system: Bacteroides fragilis ATCC 23745; test: as above; format: cell-based
[23] = test system: Fusobacterium necrophorum ATCC 27852; test: as above; format: cell-based
physchem = format: physicochemical; conditions: for half-life: acidic environment
Text: t 1/2 represents the half life time of the antibiotics as determined by
high pressure liquid phase chromatography (HPLC).

Work on `CC[C@H]1OC(=O)[C@H](C)[C@@H](O[C@H]2C[C@H](OC)[C@@H](O)[C@H](C)O2)[C@H](C)[C@@H](O[C@@H]2O[C@H](C)C[C@H](N(C)C)[C@H]2O)[C@](C)(O)C[C@@H](C)C(=O)[C@H](C)[C@@H](O)[C@H]1C` [P 15149, 3-O-oleandrosyl-5-O-desosaminyl-erythronolide B] yielded an MIC ([1]; Staphylococcus aureus, ATCC6538, read-out: minimum inhibiting concentration) of 0.78 µg/mL (≈ 1.11 µM), an MIC ([2]; Staphylococcus aureus, LRP14, read-out: minimum inhibiting concentration) of 0.78 µg/mL (≈ 1.11 µM) and an MIC ([3]; Enterococcus faecalis, LRP7, read-out: minimum inhibiting concentration) of 0.78 µg/mL (≈ 1.11 µM). The MIC ([4]; Enterococcus faecalis, ATCC12958, read-out: minimum inhibiting concentration) was 0.78 µg/mL (≈ 1.11 µM), the MIC ([5]; Streptococcus, ATCC6303, read-out: minimum inhibiting concentration) was 0.097 µg/mL (≈ 0.138 µM) and the MIC ([6]; Streptococcus, LRP52, read-out: minimum inhibiting concentration) was 0.097 µg/mL (≈ 0.138 µM). For the same compound, the MIC ([7]; Streptococcus, LRP53, read-out: minimum inhibiting concentration) was 0.097 µg/mL (≈ 0.138 µM), the MIC ([8]; Streptococcus pyogenes, ATCC8668, read-out: minimum inhibiting concentration) was 0.097 µg/mL (≈ 0.138 µM) and the MIC ([9]; Streptococcus pyogenes, LRP197, read-out: minimum inhibiting concentration) was 0.097 µg/mL (≈ 0.138 µM). It also gave an MIC ([10]; Corynebacterium, LRP24, read-out: minimum inhibiting concentration) of 0.049 µg/mL (≈ 0.0696 µM), an MIC ([11]; Micrococcus luteus, ATCC9341, read-out: minimum inhibiting concentration) of 0.097 µg/mL (≈ 0.138 µM) and an MIC ([12]; Micrococcus luteus, ATCC15957, LRP 193, Erythromicina resistant, read-out: minimum inhibiting concentration) of over 25 µg/mL. It also gave an MIC ([13]; Staphylococcus aureus, ATCC14154, LRP 78, Erythromicina resistant, read-out: minimum inhibiting concentration) of over 25 µg/mL, an MIC (Bacillus subtilis LRP 25; Bacillus subtilis, LRP25, read-out: minimum inhibiting concentration) of 0.039 µg/mL (≈ 0.0554 µM) and an MIC ([14]; Haemophilus influenzae, ATCC19418, LRP 213, read-out: minimum inhibiting concentration) of 6.25 µg/mL (≈ 8.88 µM). The MIC ([15]; Pseudomonas aeruginosa, LRP9, read-out: minimum inhibiting concentration) was over 25 µg/mL, the MIC (Shigella sonnei LRP 5; Shigella sonnei, LRP5, read-out: minimum inhibiting concentration) was over 25 µg/mL and the MIC ([16]; Neisseria gonorrhoeae, ATCC19424, read-out: minimum inhibiting concentration) was 0.195 µg/mL (≈ 0.277 µM). For the same compound, the MIC (Escherichia coli LRP 50; Escherichia coli, LRP50, read-out: minimum inhibiting concentration) was over 25 µg/mL, the MIC ([17]; Klebsiella pneumoniae, LRP54, read-out: minimum inhibiting concentration) was over 25 µg/mL and the MIC ([18]; Proteus vulgaris, ATCC6380, read-out: minimum inhibiting concentration) was over 25 µg/mL. For the same compound, the MIC (Salmonella typhi LRP 8; Salmonella enterica, TYPHI, read-out: minimum inhibiting concentration) was over 25 µg/mL, the MIC ([19]; Acholeplasma laidlawii, ATCC23206, read-out: minimum inhibiting concentration) was 12.5 µg/mL (≈ 17.8 µM) and the MIC ([20]; Metamycoplasma hominis, ATCC14097, read-out: minimum inhibiting concentration) was over 25 µg/mL. For the same compound, the MIC ([21]; Clostridium, ATCC3624, LRP 206, read-out: minimum inhibiting concentration) was 12.5 µg/mL (≈ 17.8 µM), the MIC ([22]; Bacteroides fragilis, ATCC23745, read-out: minimum inhibiting concentration) was 3.12 µg/mL (≈ 4.43 µM) and the MIC ([23]; Fusobacterium necrophorum, ATCC27852, read-out: minimum inhibiting concentration) was over 25 µg/mL. For the same compound, the half-life (physchem; pH 2) was 18 h, the half-life (physchem; pH 3, read-out: t 1/2) was over 100 h and the half-life (physchem; pH 4, read-out: t 1/2) was over 100 h.
For “3-O-oleandrosyl-5-O-desosaminyl-(8S)-8,19-epoxyerythronolide B [P 15153]”, the minimum inhibiting concentration ([1]; solid medium, LRP 39) was 0.195 µg/mL, the minimum inhibiting concentration ([2]; solid medium, LRP 14, Penycilline resistant) was 0.195 µg/mL and the minimum inhibiting concentration ([3]; solid medium, LRP 7) was 0.78 µg/mL. For the same compound, the minimum inhibiting concentration ([4]; solid medium, LRP 61) was 0.39 µg/mL, the minimum inhibiting concentration ([5]; solid medium, LRP 35) was 0.049 µg/mL and the minimum inhibiting concentration ([6]; solid medium, LRP 52) was 0.049 µg/mL. For the same compound, the minimum inhibiting concentration ([7]; solid medium, LRP 53) was 0.024 µg/mL, the minimum inhibiting concentration ([8]; solid medium, LRP 34) was 0.049 µg/mL and the minimum inhibiting concentration ([9]; solid medium, LRP 197) was 0.049 µg/mL. It also gave a minimum inhibiting concentration ([10]; solid medium, LRP 24) of 0.024 µg/mL, a minimum inhibiting concentration ([11]; solid medium, LRP 6) of 0.024 µg/mL and a minimum inhibiting concentration ([12]; LRP 193, Erythromicina resistant) of over 25 µg/mL. It also gave a minimum inhibiting concentration ([13]; LRP 78, Erythromicina resistant) of over 25 µg/mL, a minimum inhibiting concentration (Bacillus subtilis LRP 25; solid medium, LRP 25) of 0.195 µg/mL and a minimum inhibiting concentration ([14]; LRP 213) of 12.5 µg/mL. The minimum inhibiting concentration [15] was over 25 µg/mL, the minimum inhibiting concentration (Shigella sonnei LRP 5) was over 25 µg/mL and the minimum inhibiting concentration ([16]; solid medium, LRP 214) was 0.195 µg/mL. For the same compound, the minimum inhibiting concentration (Escherichia coli LRP 50; solid medium, LRP 50) was 25 µg/mL, the minimum inhibiting concentration ([17]; solid medium, LRP 54) was over 25 µg/mL and the minimum inhibiting concentration ([18]; solid medium, LRP 13) was over 25 µg/mL. It also gave a minimum inhibiting concentration (Salmonella typhi LRP 8; solid medium, LRP 8) of 25 µg/mL, a minimum inhibiting concentration ([19]; solid medium, LRP 204) of 1.56 µg/mL and a minimum inhibiting concentration ([20]; solid medium, LRP 211) of over 25 µg/mL. For the same compound, the minimum inhibiting concentration ([21]; LRP 206) was 3.12 µg/mL, the minimum inhibiting concentration ([22]; solid medium, LRP 205, anaerobic) was 6.25 µg/mL and the minimum inhibiting concentration ([23]; solid medium, LRP 210, anaerobic) was 25 µg/mL. For the same compound, the “t 1/2” value (physchem; pH 2.0, 25° C.) was 65 h.
